According to patent US11718892B2, “Biological ore processing for the isolation of heavy metals” (CyPlus GmbH, priority 2015, dated 2023):

Assays:
Experiment in all cases: Growth on agar plates with different concentrations of AgNO3 or HAuCl4 (resistance assay)
Type in all cases: cell-based
Parameters in all cases: key: x = growth; (x) = weak growth
Escherichia coli = system: Escherichia coli
Text: (§1) The growth of several microorganisms (e.g. Escherichia coli, Xanthomonas campestris, Cupriavidus metallidurans and Bacillus sphaericus) was monitored in the presence of the lids with coated pins. Escherichia coli and Xanthomonas campestris served as negative controls with regard to metal binding; Cupriavidus metallidurans as positive control. Additionally, Bacillus sphaericus was used as a positive control for silver binding. For Bacillus sphaericus the binding to gold particles and gold coated surfaces was observed earlier by the inventors. Cupriavidus metallidurans is a gram-negative, rod-shaped bacterium which has gold binding capacity as described in the literature (Reith et al., 2006). The species name metallidurans indicates its resistance to heavy metals and its ability to survive in the presence of gold and silver was investigated previously (Reith F, Rogers S L, McPhail D C and Webb D. (2006) “Biomineralization of gold: biofilms on bacterioform gold.” Science 313(5784): 233-236; Reith F, Etschmann B, Grosse C, Moors H, Benotmane M A, Monsieurs P, Grass G, Doonan C, Vogt S, Lai B, Martinez-Criado G, George G N, Nies D H, Mergeay M, Pring A, Southam G and Brugger J. (2009) “Mechanisms of gold biomineralization in the bacterium Cupriavidus metallidurans.” Proc Natl Acad Sci 106(42):17757-17762; Ledrich ML1, Stemmler S, Laval-Gilly P, Foucaud L, and Falla J (2005) “Precipitation of silver-thiosulfate complex and immobilization of silver by Cupriavidus metallidurans CH34.” Biometals 18(6): 643-650).
(§2) To investigate the tolerated concentration of silver and gold, the microorganisms were propagated in liquid medium and streaked on agar plates with different concentrations of AgNO3 or HAuCl4, respectively.

[1] = system: Cupriavidus metallidurans
Text: as §1, §2

Xanthomonas campestris = system: Xanthomonas campestris
Text: as §1, §2

Bacillus sphaericus = system: Bacillus sphaericus
Text: as §1, §2

O=[N+]([O-])[O-].[Ag+] [AgNO3]
Microbial growth dependence on AgNO3 concentration (Escherichia coli; 2 μM AgNO3, agar plate): x
Microbial growth dependence on AgNO3 concentration (Escherichia coli; 10 μM AgNO3, agar plate): x
Microbial growth dependence on AgNO3 concentration (Escherichia coli; 20 μM AgNO3, agar plate): x
Microbial growth dependence on AgNO3 concentration (Escherichia coli; 50 μM AgNO3, agar plate): x
Microbial growth dependence on AgNO3 concentration (Escherichia coli; 100 μM AgNO3, agar plate): x
Microbial growth dependence on AgNO3 concentration ([1]; 2 μM AgNO3, agar plate): x
Microbial growth dependence on AgNO3 concentration ([1]; 10 μM AgNO3, agar plate): x
Microbial growth dependence on AgNO3 concentration ([1]; 20 μM AgNO3, agar plate): x
Microbial growth dependence on AgNO3 concentration ([1]; 50 μM AgNO3, agar plate): x
Microbial growth dependence on AgNO3 concentration ([1]; 100 μM AgNO3, agar plate): x
Microbial growth dependence on AgNO3 concentration ([1]; 150 μM AgNO3, agar plate): x
Microbial growth dependence on AgNO3 concentration ([1]; 200 μM AgNO3, agar plate): (x)
Microbial growth dependence on AgNO3 concentration (Xanthomonas campestris; 2 μM AgNO3, agar plate): x
Microbial growth dependence on AgNO3 concentration (Xanthomonas campestris; 10 μM AgNO3, agar plate): x
Microbial growth dependence on AgNO3 concentration (Xanthomonas campestris; 20 μM AgNO3, agar plate): x
Microbial growth dependence on AgNO3 concentration (Xanthomonas campestris; 50 μM AgNO3, agar plate): x
Microbial growth dependence on AgNO3 concentration (Xanthomonas campestris; 100 μM AgNO3, agar plate): x
Microbial growth dependence on AgNO3 concentration (Bacillus sphaericus; 2 μM AgNO3, agar plate): x
Microbial growth dependence on AgNO3 concentration (Bacillus sphaericus; 10 μM AgNO3, agar plate): x
Microbial growth dependence on AgNO3 concentration (Bacillus sphaericus; 20 μM AgNO3, agar plate): x
Microbial growth dependence on AgNO3 concentration (Bacillus sphaericus; 50 μM AgNO3, agar plate): x
Microbial growth dependence on AgNO3 concentration (Bacillus sphaericus; 100 μM AgNO3, agar plate): x
Microbial growth dependence on AgNO3 concentration (Bacillus sphaericus; 150 μM AgNO3, agar plate): x

[Au+3].[Cl-].[Cl-].[Cl-].[Cl-].[H+] [HAuCl4]
Microbial growth dependence on HAuCl4 concentration (Escherichia coli; 2 μM HAuCl4, agar plate): x
Microbial growth dependence on HAuCl4 concentration (Escherichia coli; 20 μM HAuCl4, agar plate): x
Microbial growth dependence on HAuCl4 concentration (Escherichia coli; 100 μM HAuCl4, agar plate): x
Microbial growth dependence on HAuCl4 concentration (Escherichia coli; 200 μM HAuCl4, agar plate): x
Microbial growth dependence on HAuCl4 concentration (Escherichia coli; 300 μM HAuCl4, agar plate): x
Microbial growth dependence on HAuCl4 concentration ([1]; 2 μM HAuCl4, agar plate): x
Microbial growth dependence on HAuCl4 concentration ([1]; 20 μM HAuCl4, agar plate): x
Microbial growth dependence on HAuCl4 concentration ([1]; 100 μM HAuCl4, agar plate): x
Microbial growth dependence on HAuCl4 concentration ([1]; 200 μM HAuCl4, agar plate): x
Microbial growth dependence on HAuCl4 concentration ([1]; 300 μM HAuCl4, agar plate): x
Microbial growth dependence on HAuCl4 concentration ([1]; 400 μM HAuCl4, agar plate): x
Microbial growth dependence on HAuCl4 concentration ([1]; 500 μM HAuCl4, agar plate): x
Microbial growth dependence on HAuCl4 concentration (Xanthomonas campestris; 2 μM HAuCl4, agar plate): x
Microbial growth dependence on HAuCl4 concentration (Xanthomonas campestris; 20 μM HAuCl4, agar plate): x
Microbial growth dependence on HAuCl4 concentration (Xanthomonas campestris; 100 μM HAuCl4, agar plate): x
Microbial growth dependence on HAuCl4 concentration (Xanthomonas campestris; 200 μM HAuCl4, agar plate): x
Microbial growth dependence on HAuCl4 concentration (Xanthomonas campestris; 300 μM HAuCl4, agar plate): x
Microbial growth dependence on HAuCl4 concentration (Bacillus sphaericus; 2 μM HAuCl4, agar plate): x
Microbial growth dependence on HAuCl4 concentration (Bacillus sphaericus; 20 μM HAuCl4, agar plate): x
Microbial growth dependence on HAuCl4 concentration (Bacillus sphaericus; 100 μM HAuCl4, agar plate): x
Microbial growth dependence on HAuCl4 concentration (Bacillus sphaericus; 200 μM HAuCl4, agar plate): x
